Laboratory results published in patent US20040192594A1 (priority 2002, published 2004).
Where two headings read alike, the source gives them in different places.

Legend:
Torpedo maramorta AchR = Torpedo maramorta AchR (Torpedo marmorata, UniProt P02711); parameters: Relative Affinity: reference not given here; conditions: cited from earlier work
mice [1] = conditions: mouse, in vivo
[2] = test system: cell lines in tissue culture
mice [3] = conditions: mouse, in vivo, sc

Compound | Relative Affinity (Torpedo maramorta AchR) | IC50 (Torpedo maramorta AchR; read-out: IC50) | IC50 (Torpedo maramorta AchR) | Paralysis in mice injected with the toxin (mice [1]) | Toxicity to cell lines [2] | Time to death (average) (mice [3])
alpha Bungarotoxin | 30,952.0 | 0.0084 µM | – | – | – | –
CN1CCCC1c1cccnc1 (stereo not drawn) [Nicotine] | 0.19 | – | 1400 µM | – | – | –
C[N+](C)(C)CCOC(=O)CCCCCCC(=O)OCC[N+](C)(C)C.[I-].[I-] [Suderyldicholine] | 104.0 | 2.5 µM | – | – | – | –
COc1cc2c3cc1Oc1cc(ccc1O)C[C@@H]1c4c(cc(OC)c(O)c4Oc4ccc(cc4)C[C@@H]3N(C)CC2)CC[N+]1(C)C [d-Tubocurarine] | 76.5 | 3.4 µM | – | – | – | –
C[N+](C)(C)CCOC(N)=O.[Cl-] [Carbamylcholinechloride] | 0.09 | – | 2800 µM | – | – | –
alpha cobratoxin | 1,529.0 | 0.17 µM | – | very little or no paralysis | not toxic | 20.5 min
